From patent US10005808B2, “Crystal of alkali metal N-acetylneuraminate anhydrate, and process for producing same” (KYOWA HAKKO BIO CO., LTD., priority 2014, dated 2018)

Tests used:
[1] = Degree of coloration when stored in a closed system at 60° C. (transmittance T% 430 nm); format: physicochemical
Protocol: With respect to the crystal of NeuAc sodium salt anhydrate and a crystal of known NeuAc dihydrate, the degree of coloration when stored in a closed system at 60° C. was compared, and the results are shown in Table 7. The degree of coloration is expressed by transmittance T % 430 nm=100×10^−A (A=Abs: 430 nm, 1 cm).
With respect to the crystal of NeuAc potassium salt anhydrate and a crystal of known NeuAc dihydrate, the degree of coloration when stored in a closed system at 60° C. was compared, and the results are shown in Table 14. The degree of coloration is expressed by transmittance T % 430 nm=100×10^−A (A=Abs: 430 nm, 1 cm).

[2] = normal temperature; cited from earlier work
[3] = normal temperature / storage; cited from earlier work
[4] = pH of aqueous solution of the crystal at 100 g/L; format: physicochemical
Protocol: As for the pH, an aqueous solution at 100 g/L in terms of NeuAc sodium salt was measured.
As for the pH, an aqueous solution at 100 g/L in terms of NeuAc potassium salt was measured.

[5] = Measurement of degree of solubility in water (HPLC of supernatant); format: physicochemical; details: various temperatures, FIG. 5 / FIG. 10, result in words
Protocol: (2) Measurement of Degree of Solubility
A crystal of NeuAc sodium salt anhydrate, a crystal of NeuAc potassium salt anhydrate, or a crystal of known NeuAc dihydrate was added to water adjusted to respective temperatures until each crystal was caused to remain undissolved and after keeping the solution for a sufficient time under stirring, the supernatant containing no crystal was collected and measured for the concentration by using the following HPLC analysis conditions.
Guard column: Shodex SUGAR SH-G ϕ6.0×50 mm
Column: SUGAR SH1011 ϕ8.0×300 mm×2 columns in series
Column temperature: 60° C.
Buffer: an aqueous 0.005 mol/L sulfuric acid solution
Flow velocity: 0.6 mL/min
Detector: UV detector (wavelength: 210 nm)
The degrees of solubility in water of the crystal of NeuAc sodium salt anhydrate obtained above and a crystal of NeuAc dihydrate are illustrated in FIG. 5.
The degrees of solubility in water of the crystal of NeuAc potassium salt anhydrate obtained above and a crystal of NeuAc dihydrate are illustrated in FIG. 10.

[6] = Weight change (moisture absorption) under an atmosphere of 25° C. and humidity 66%; format: physicochemical; details: humidity 66%; for weight increase due to moisture absorption (in words): up to 24 hours
Protocol: With respect to the crystal of NeuAc sodium salt anhydrate and the noncrystalline amorphous of NeuAc sodium salt acquired in Reference Example 1, the weight change under an atmosphere of 25° C. and humidity 66% was compared, and the results are shown in Table 3.
With respect to the crystal of NeuAc potassium salt anhydrate and the noncrystalline amorphous of NeuAc potassium salt acquired in Reference Example 2, the weight change under an atmosphere of 25° C. and humidity 66% was compared, and the results are shown in Table 10.

Row | Structure (SMILES) | Transmittance T % 430 nm ([1]; elapsed time 0 days, Table 7) [%] | Transmittance T % 430 nm ([1]; elapsed time 0 days, Table 14) [%] | Transmittance T % 430 nm ([1]; elapsed time 3 days, Table 7) [%] | Transmittance T % 430 nm ([1]; elapsed time 3 days, Table 14) [%] | Transmittance T % 430 nm ([1]; elapsed time 6 days, Table 7) [%] | Transmittance T % 430 nm ([1]; elapsed time 6 days, Table 14) [%] | storage stability (in words) [3] | coloration during storage compared with crystal of known NeuAc dihydrate (in words) [1] | degree of solubility in water compared with crystal of known NeuAc dihydrate [5] | also measured
1 | CC(=O)N[C@H]1[C@H]([C@H](O)[C@H](O)CO)OC(O)(C(=O)O)C[C@@H]1O (some centres unmarked) [Crystal of dihydrate, N-Acetylneuraminic acid, reference compound] | 100.1 | 100.1 | 73.26 | 73.26 | 50.46 | 50.46 | gradually discolored to dark brown |  |  | degree of solubility [2]: about 100 g/L
2 | CC(=O)N[C@H]1[C@H]([C@H](O)[C@H](O)CO)OC(O)(C(=O)[O-])C[C@@H]1O.[K+] (some centres unmarked) [Crystal of potassium salt, NeuAc potassium salt anhydrate] |  | 99.90 |  | 99.73 |  | 99.63 |  | extremely low | excellent solubility | pH ([4]; aqueous solution at 100 g/L in terms of NeuAc potassium salt, listed as Example 4): 6.6; pH ([4]; aqueous solution at 100 g/L in terms of NeuAc potassium salt, listed as Example 5): 6.5; Rate of Weight Change ([6]; elapsed time 0 h, Table 10): 0.00%; Rate of Weight Change ([6]; elapsed time 3 h, Table 10): 0.06%; Rate of Weight Change ([6]; elapsed time 7 h, Table 10): 0.00%; Rate of Weight Change ([6]; elapsed time 24 h, Table 10): −0.06%; weight increase due to moisture absorption (in words) ([6]; listed as crystal of NeuAc potassium salt anhydrate): a weight increase was not recognized
3 | CC(=O)N[C@H]1[C@H]([C@H](O)[C@H](O)CO)OC(O)(C(=O)[O-])C[C@@H]1O.O.O.O.[Na+] (some centres unmarked) [NeuAc sodium salt trihydrate] |  |  |  |  |  |  | high storage stability at normal temperature |  |  | 
4 | CC(=O)N[C@H]1[C@H]([C@H](O)[C@H](O)CO)OC(O)(C(=O)[O-])C[C@@H]1O.[K+] (some centres unmarked) [Reference Example 2, NeuAc potassium salt, reference compound] |  |  |  |  |  |  |  |  |  | weight increase due to moisture absorption (in words) ([6]; listed as noncrystalline amorphous of NeuAc potassium salt, potassium salt): marked weight increase due to moisture absorption and deliquesced when 24 hours had passed
5 | CC(=O)N[C@H]1[C@H]([C@H](O)[C@H](O)CO)O[C@](O)(C(=O)[O-])C[C@@H]1O.[Na+] [Reference Example 1, NeuAc sodium salt, reference compound] |  |  |  |  |  |  |  |  |  | weight increase due to moisture absorption (in words) ([6]; listed as noncrystalline amorphous of NeuAc sodium salt, sodium salt): marked weight increase due to moisture absorption and deliquesced when 24 hours had passed
6 | CC(=O)N[C@H]1[C@H]([C@H](O)[C@H](O)CO)O[C@](O)(C(=O)[O-])C[C@@H]1O.[Na+] [Crystal of sodium salt, NeuAc sodium salt anhydrate] | 99.98 |  | 100.0 |  | 100.0 |  |  | extremely low | excellent solubility | pH ([4]; aqueous solution at 100 g/L in terms of NeuAc sodium salt, listed as Example 1): 6.74; pH ([4]; aqueous solution at 100 g/L in terms of NeuAc sodium salt, listed as Example 2): 6.8; Rate of Weight Change ([6]; elapsed time 0 h, Table 3): 0.00%; Rate of Weight Change ([6]; elapsed time 3 h, Table 3): −0.04%; Rate of Weight Change ([6]; elapsed time 7 h, Table 3): −0.02%; Rate of Weight Change ([6]; elapsed time 24 h, Table 3): −0.04%; weight increase due to moisture absorption (in words) ([6]; listed as crystal of NeuAc sodium salt anhydrate): a weight increase was not recognized
